# Patent publication US20220409590A1, “CHEMOTHERAPY FOR GLIOMA THROUGH NEURONAL CONVERSION” (The Penn State Research Foundation, priority 2019, published 2022)
# Test system: U251 cells
# Assay: Reprogramming of U251 cells; doublecortin immunostaining
# Type: cell-based, human
# Experimental: U251 cells were maintained in minimal essential media (MEM) supplemented with 2 mM glutamine, 1% non-essential amino acids, 1 mM sodium pyruvate, and 10% fetal bovine serum. Fifty thousand cells were seeded on to coverslips into 24-well plates. After 4 days in MEM, the cells were treated with the compound cocktail or dimethyl sulfoxide for another 4 days in Ham's F-12 (F-12) media supplemented with N2, B27 and insulin. The five-compound cocktail, referred to as described above as SLCDS, contained 5 μM SB431542, 0.25 μM LDN193189, 5 μM CHIR99021, 5 μM DAPT, and 40 μM SKL2001. After SLCDS treatment, F-12 media was changed every 4 days for 12 days. Cells were then crosslinked with 4% paraformaldehyde for 12 minutes and washed with Tris buffered saline (TBS). After three 5-minute washes, cells were blocked with 2.5% bovine serum albumin in Tris-buffered saline (TBS) with 0.1% Triton X-100 (TBSTx) for 1 hour. Primary antibody (goat Doublecortin, 1:500 dilution, sc-8066, Santa Cruz) were incubated with fixed cells overnight at 4° C. After three 5-minute washes, the secondary antibody (anti-goat Cy5, 1:1000) was incubated with fixed cells overnight at 4° C. After three 5-minute washes, the cover slip was mounted using mounting media. The fluorescent signal was detected using an ECHO Revolve microscope.
compound,measurement,setting,value
O=C(NCCCn1ccnc1)c1cc(-c2ccco2)on1 [SKL2001],dose response of doublecortin expression,"SKL2001 in combination with SB431542, LDN193189, CHIR99021 and DAPT in U251 cells, FIG. 2",dose-response relationship is established
same,conversion of U251 glioblastoma cells to neuronal cells,as evidenced by doublecortin expression,efficient conversion
